Data from patent publication US20210330611A1, “THERAPY FOR NEUROLOGICAL DISEASES/DISORDERS” (priority 2020, published 2021).
Where two headings read alike, the source gives them in different places.

Key:
[1] = system: fibrin-induced microglia activation; assay: Image-based assay of fibrin-induced microglia activation (HTS and dose response); type: cell-based, rat; conditions: for IC50 / inhibition at 10 µM: Rattus norvegicus, Microglia; for inhibition at 10 µM: primary microglia HTS, fibrin stimulation, read-out: Fibrin % inhibition
[2] = system: LPS-induced microglia activation; assay: Image-based assay of LPS-induced microglia activation (HTS and dose response); type: cell-based, rat; conditions: Rattus norvegicus, Microglia; for inhibition at 10 µM: primary microglia HTS, LPS stimulation, read-out: LPS % inhibition
[3] = system: fibrin- and LPS-induced microglia activation; assay: cells; type: cell-based, rat; conditions: for inhibition at 10 µM: Rattus norvegicus; for Activity: Table 7, fib = fibrin, LPS, tox = toxicity
[4] = in vitro; conditions: rat, Cell Toxicity IC50 (uM) [cFib assay]
[5] = in vitro; conditions: rat
[6] = system: primary rat microglia; assay: Cell toxicity (dead cells, size <150 μm2) in LPS assay; conditions: for LPS % cell toxicity: primary microglia HTS, LPS stimulation; for IC50: read-out: Cell Toxicity IC50 (uM) [LPS assay], LPS assay
[7] = system: primary rat microglia; assay: Cell toxicity (dead cells, size <150 μm2) in coated fibrin (cFib) assay; conditions: primary microglia HTS, fibrin stimulation;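 for Fibrin % cell toxicity: share of dead cells sized under 150 µm2 at 10 µM in fibrin-stimulated microglia HTS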
[8] = 48 h, Table 1, dose response 0.001-20 μM, triplicates, primary rat microglia, 48 h, read-out: Fibrin IC50
[9] = dose response, fibrin-induced microglia activation, read-out: Fibrin IC50
[10] = fibrin-induced microglia activation, dose response, read-out: Fibrin IC50 (uM) (Suppl. Table 7)
[11] = increased cell size (>800 μm^2) as marker of activation
[12] = 48 h, Table 1, dose response 0.001-20 μM, triplicates, primary rat microglia, 48 h, read-out: LPS IC50
[13] = 48 h, increased cell size (>800 μm^2) as marker of activation
[14] = LPS-induced microglia activation, dose response, read-out: LPS IC50 (uM) (Suppl. Table 7)
[15] = dose response, LPS-induced microglia activation, read-out: LPS IC50
[16] = HTS of 1907 compounds, quadrant by fibrin and LPS inhibition
[17] = Microglia, HTS hit classification, read-out: Hit
[18] = quadrant by fibrin and LPS inhibition in HTS of 1907 compounds
[19] = decreased size (<150 μm^2) as marker of toxicity
[20] = hit classification in microglia HTS, read-out: Cherry-picked Hit (Suppl. Table 7)

Row | SMILES | IC50 [1, 8] [µM] | IC50 ([1]; Table 7, read-out: fib_IC50) [µM] | IC50 [1, 9] [µM] | IC50 [1, 10] [µM] | inhibition at 10 µM [1, 11] [%] | IC50 [2, 12] [µM] | inhibition at 10 µM [2, 13] [%] | IC50 [2, 14] [µM] | IC50 ([2]; Table 7, read-out: LPS_IC50) [µM] | IC50 [2, 15] [µM] | Quadrant (FIG. 5b) [3, 16] | inhibition at 10 µM [3, 17] [%] | Quadrant (FIG. 5b) ([3]; Table 1, screen at 10 μM) | Quadrant (FIG. 5b) ([3]; Table 2, screen at 10 μM) | Activity [3] | Quadrant (FIG. 5b) [3, 18] | IC50 ([4]; cFib assay) [µM] | IC50 [5] [nM] | LPS % cell toxicity [6, 19] [%] | Fibrin % cell toxicity [7, 19] [%] | further results
1 | CC(=O)OCC(=O)[C@@]1(O)CC[C@H]2[C@@H]3CCC4=CC(=O)CC[C@]4(C)[C@@]3(F)[C@@H](O)C[C@@]21C [Fludrocortisone acetate, reference compound] | < 0.001 | 0.002 | < 0.001 | < 0.001 | 104 | 0.4 | 101 | 0.4 | 0.002 | 0.4 | Q2 | > 50 | Q2 | Q2 | fib/LPS | Q2 | > 20 | > 20000 | 4 | 2 | Fibrin Selectivity [1]: 362; Fibrin Selectivity (LOG10) [1]: 2.56; IC50 ([1]; Table 3, read-out: Fibrin IC50 (uM) (Suppl. Table 7)): < 0.001 µM; IC50 ([1]; Table 6, read-out: Fibrin IC50 (uM) (Suppl. Table 7)): < 0.001 µM; IC50 ([2]; Table 3, read-out: LPS IC50 (uM) (Suppl. Table 7)): 0.4 µM; IC50 ([2]; Table 6, read-out: LPS IC50 (uM) (Suppl. Table 7)): 0.4 µM; inhibition at 10 µM ([3]; Microglia, Table 3, read-out: Cherry-picked Hit (Suppl. Table 7)): > 50%; Quadrant (FIG. 5b) ([3]; Table 3, screen at 10 μM): Q2; Quadrant (FIG. 5b) ([3]; microglia HTS, Table 6): Q2; IC50 ([4]; Table 3): > 20 µM; IC50 ([4]; cFib assay, Table 6): > 20 µM; IC50 [6]: > 20 µM; IC50 ([6]; Table 6): > 20 µM
2 | CC1(C)O[C@@H]2C[C@H]3[C@@H]4C[C@H](F)C5=CC(=O)C=C[C@]5(C)[C@@]4(F)[C@@H](O)C[C@]3(C)[C@]2(C(=O)CO)O1 [Fluocinolone acetonide, reference compound] | < 0.001 | 0.002 | < 0.001 | < 0.001 | 105 | < 0.001 | 104 | < 0.001 | 0.002 | < 0.001 | Q2 | > 50 | Q2 | Q2 | fib/LPS |  | > 20 | > 20000 | 4 | 2 | inhibition at 10 µM ([1]; activation = cell size >800 μm2): -35%; inhibition at 10 µM ([2]; 48 h, activation = cell size >800 μm2): 10%; inhibition at 10 µM [3, 20]: > 50%; LPS % cell toxicity ([6]; toxicity = cell size <150 μm2): 0%; Fibrin % cell toxicity ([7]; toxicity = cell size <150 μm2): 1%
3 | Cc1cccc(C)c1NC(=O)c1ccccc1C(=O)O [Ftaxilide, reference compound] | > 20 |  | > 20 | > 20 | 78 | > 20 | 42 | > 20 |  | > 20 | Q3 | > 50 | Q3 |  |  | Q3 | > 20 | > 20000 | 1 | 2 | inhibition at 10 µM [3, 20]: > 50%
